We go through 1 compound from article PMC5512002 (Cellular signalling, 2017).

In this test the target is T1, GPR55 (Rattus norvegicus, UniProt F1MAK4).
T1 sequence (F1MAK4 1-319): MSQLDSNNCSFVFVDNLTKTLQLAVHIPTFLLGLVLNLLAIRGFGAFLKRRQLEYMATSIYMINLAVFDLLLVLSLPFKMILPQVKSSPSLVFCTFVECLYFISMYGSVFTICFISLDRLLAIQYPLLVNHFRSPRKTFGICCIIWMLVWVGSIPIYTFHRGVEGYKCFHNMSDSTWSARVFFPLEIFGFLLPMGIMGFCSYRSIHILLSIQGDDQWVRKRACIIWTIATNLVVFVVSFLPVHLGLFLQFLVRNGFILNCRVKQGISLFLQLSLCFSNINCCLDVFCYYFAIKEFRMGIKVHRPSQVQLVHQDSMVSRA
The test is described as follows: inhibition of uptake of fluorescent GPR55 ligand T1117 in live C6 cells. Type of test: cell-based.

The term IC50 denotes the concentration that gives 50% inhibition. Low values mean greater potency in that assay, high ones weaker potency in that assay.

As to `COc1ccc(C[C@@H](C)NC[C@H](O)c2cc(O)cc(O)c2)c2ccccc12` [(R,R′)-MNF], the IC50 was 320 nM.
